{"source": "patent US20260069563A1", "about": "“CETOLEIC ACID COMPOSITION” (Epax Norway AS, priority 2022, published 2026)", "system": "human fibroblasts", "experiment": "Wound healing model (scratch wound) in human fibroblasts", "type": "cell-based", "settings": "14 hours after wounding; initial wound area defined as 100%; added to cell culture medium", "text": "Preliminary cell studies with human fibroblasts have been performed to test potential health benefits of LCMUFA in skin.\nThe main objective of the study was to show whether addition of a LCMUFA concentrate (Cetoleic acid concentrate) or DHA to cell culture medium would: • 1) Influence the capacity of the cells to regenerate after damage (so called “wound healing model”), • 2) Influence the production of melanin (skin pigment), • 3) Influence the expression of genes involved in inflammation after induced oxidative stress.\nWound healing model: Treatment arms included addition of DHA or the LCMUFA contrate to the cell culture medium, respectively. The control was cells only added culture medium, no fatty acids. The effect on closing of wound 14 hours after initiation of a wound was measured.\nThe initial wound area was defined as 100%, then the wound opening was measured after 14 hours to a percentage of the original wound. The reduction was approximately 60% for LC-MUFA and 50% for DHA, respectively.", "data": [{"smiles": "CC/C=C\\C/C=C\\C/C=C\\C/C=C\\C/C=C\\C/C=C\\CCC(=O)O", "note": "[DHA, Docosahexaenoic acid]", "values": [{"measurement": "reduction of scratch wound area", "result": "~50", "unit": "%"}]}]}
